Test results reported in patent US10287265B2, “Enantiomers of 8-hydroxyquinoline derivatives and the synthesis thereof” (AVIDIN Co. Ltd., priority 2015, dated 2019).
Entries after “also recorded” stand apart in the source; their conditions may differ.

Tests used:
[1] = tested on: EPO gene; test: Gene expression in primary astrocytes by qRT-PCR; type: cell-based, rat; conditions: 3 h, Example 2 at 330 nM and 1000 nM, PBT2 at 1000 nM
Procedure: (§1) Pure astrocyte culture was obtained from neonatal rats according to the protocol found in literature (Protocols for Neural Cell Culture 2001, pp 117-127. ch 9. Ruth Cole, Jean de Vellis. Preparation of Astrocyte, Oligodendrocyte, and Microglia Cultures from Primary Rat Cerebral Cultures). Astrocytes (1 million) were cultured in 100 mm TC-treated culture dishes (Orange Scientific, Belgium) in an incubator set at 37° C. and 5% CO2 with humid air. The R-enantiomeric derivative according to Example 2 was added to cells in two final concentrations: 330 nM and 1000 nM. Cells were also treated with 1000 nM PBT2 which bears the basic structure of the R-enantiomer according to Example 2 (8-hydroxy-quinoline ring) but contains conformational differences and was developed for the treatment of neurodegenerative disorders (Pub. No.: WO/2004/007461). Treatments were carried out with a 100 μM DMSO-based stock solution. Control cells were treated with the same amount of DMSO without the agent. Each treatment was conducted in three separate culture dishes. After treatment, cells were incubated at 37° C. for 3 h, then the medium was removed, cells were washed with PBS and total RNA was extracted from cells with the Accuzol™ Total RNA Extraction Solution (Bioneer, Daejeon, South Korea), according to the manufacturer's protocol. cDNA transcription was carried out with the High Capacity cDNA Reverse Transcription Kit (Life Technologies, Foster City, Calif., USA). During the test, the expression of four genes (PGK1, EPO, HMOX-1, VEGF) controlled by HIF1a was determined by qRT-PCR, with HPRT gene serving as a control. Relative expression of genes in treated samples was compared to untreated controls. The PCR was conducted with a LightCycler® Nano Instrument (Roche, Budapest, Hungary) in the presence of UPL (Universal Probe Library) probes (HPRT: 95, HMOX1: 4, EPO: 16, VEGF: 1, PGK1: 66), specific primers (HPRT1: 5′-gaccggttctgtcatgtcg-3′, HPRT2: 5′-[…]-3′; HMOX1-1: 5′-[…]-3′, HMOX1-2: 5′-ctgcagctcctcaaacagc-3′; EPO1: 5′-[…]-3′, EPO2: 5′-ccttctgcacagcccatt-3′; VEGF1: 5′-[…]-3′, VEGF2: 5′-[…]-3′; PGK1-1: 5′-[…]-3′, PGK1-2: 5′-gacttggctccattgtcca-3′) in 20 μl PCR reaction volume with 20 ng cDNA template and 10 μl Lightcycler DNA Probes Master (5×) Reagent Kit (Roche) according to the following protocol: activation of enzyme at 95° C. for 10 min, 50 cycles: denaturation at 95° C. for 15 sec, hybridization and polymerization, then detection at 60° C. for 30 sec.

[2] = tested on: HMOX-1 gene; test: Gene expression in primary astrocytes by qRT-PCR; type: cell-based, rat; conditions: 3 h, Example 2 at 330 nM and 1000 nM, PBT2 at 1000 nM
Procedure: as §1

[3] = tested on: VEGF gene; test: Gene expression in primary astrocytes by qRT-PCR; type: cell-based, rat; conditions: in the cells
Procedure: as §1

[4] = tested on: PGK1 gene; test: Gene expression in primary astrocytes by qRT-PCR; type: cell-based, rat; conditions: in the cells
Procedure: as §1

[5] = tested on: C57BL6/J mice; test: Scopolamine-induced short-term memory impairment, Y maze test; type: in vivo, mouse; conditions: per os gavage; scopolamine 0.6 mg/kg i.p. 30 min prior to Y maze test
Procedure: (§2) In vivo experiments were carried out according to the National Institute of Health guidelines for the care and use of laboratory animals, approved by the French Ministry for Research and Technology. In the course of experiments, animals were housed at a standard temperature (22±1° C.) and in a light-controlled environment (lights on from 7 a.m. to 8 p.m.) with ad libitum access to food and water. Male C57BL/6 mice (C57BL/6J Rj, ref. SC-CJ-12w-M, Janvier, France) were housed 5 animals per cage. From one week before the start of the experiment until the end of the experiment, mice were housed individually. Animals were monitored twice-a-day by laboratory personnel (8 a.m. and 4 p.m.). In this project, young (14 weeks old) as well as aged (15-16 months old) mice were used. Experiments were carried out using 12 mice per experimental group.
Investigation of short-term working memory—Y maze test Y maze tests were carried out as previously described. Prior to testing, mice were brought to the experimental room for at least 30 min to acclimatize to experimental room conditions. […] Each arm entry was recorded with those entries being counted where the mouse completely placed its hind paws in the chosen arm. […] Results were calculated as the percentage of the ratio of actual detected alternations to possible alternations (defined as the number of total arm entries minus 2). […]

[6] = tested on: C57BL6/J mice; test: Short-term memory impairment caused by amyloid peptide aggregates (icv Aβ oligomers), Y maze test; type: in vivo, mouse; conditions: 4 mg/kg body weight per os once daily for four days; Y maze at day 4 post Aβ
Procedure: as §2
Investigation of short-term working memory—Y maze test Y maze tests were carried out as previously described. Prior to testing, mice were brought to the experimental room for at least 30 min to acclimatize to experimental room conditions. The Y maze is made of opaque Plexiglas and each arm is 40 cm long, 16 cm high, 9 cm wide and positioned at equal angles. The apparatus was placed in the test room in such a way that it was brightened homogeneously with 12-15 lux in the arms as well as in the central zone. One mouse at a time was placed at the end of one arm and was allowed to move in the maze freely during a 5 min examination. Each arm entry was recorded with those entries being counted where the mouse completely placed its hind paws in the chosen arm. […] Results were calculated as the percentage of the ratio of actual detected alternations to possible alternations (defined as the number of total arm entries minus 2).
For the examination of memory impairment caused by Aβ oligomers, a mouse model developed and validated by SynAging was used. […] At day 4 post Aβ treatment, short-term memory was assessed with the Y maze test. […]
At day 4 post Aβ treatment, short-term memory was assessed with the Y maze test.

[7] = tested on: BALB/c ear skin graft on C57BL/6 recipient mice; test: Mouse skin transplantation, graft rejection scoring; type: in vivo; conditions: 5 mg/kg once every day from transplantation; Example 2 orally, tacrolimus intraperitoneal; scoring at day 9 and day 10
Procedure: Mouse skin transplantation is a standard method to assay host T cell responses to MHC-disparate donor antigens, which protocol was followed in the present example (Garrod and Cahalan; 2008). Briefly, WT C57BL/6 recipient mice (8-12 weeks old) and WT BALB/c donor mice (8-12 weeks old) were anesthetized with a combination of 10 mg/kg Xylazine and 100 mg/kg Ketamine administered by i.p. injection and 0.05 mg/kg Buprenorphine was administered by subcutaneous injection for analgesia. Ear skin (1.0 cm2) from the WT BALB/c donor mouse was grafted onto the flank of the WT C57BL/6 recipient. The implanted skin (graft) was covered with a sterile bandage, which was removed on day 7 post-transplant.
Recipients received either no treatment (controls), or treated with compound according to Example 2 orally at 5 mg/kg dose, once every day until the end of the experiment from the day of transplantation. […]
Different scores were used to define the quality of the grafts: intact grafts (Score 0), early stages of rejection (Score 1-4, corresponding to first clear signals of graft rejection: 1; >25% rejection rate: 2; >50% rejection rate: 3; >75% rejection rate: 4) up to complete graft rejection (Score 5). […] Average scores with SEM were calculated for each group.

## Cc1ccnc(N[C@@H](c2ccc(C(F)(F)F)cc2)c2ccc3cccnc3c2O)n1 [Example 3, 7-[(S)-[(4-Methylpyrimidin-2-yl)amino][4-(trifluoromethyl)phenyl]methyl]quinolin-8-ol]
[1]
  activation of EPO gene expression: capable to increase the gene activity; also recorded: highest inductive effect
[2]
  activation of HMOX-1 gene expression: capable to increase the gene activity; also recorded: caused the induction of HMOX-1 in astrocytes
[3]
  increase of VEGF gene activity: capable to increase the gene activity
[4]
  increase of PGK-1 gene activity: capable to increase the gene activity
[5]
  inhibition of scopolamine-induced short-term memory impairment: did not inhibit
[6]
  inhibition of short-term memory impairment caused by fibrillar aggregates of amyloid peptides: did not inhibit

## CN(C)Cc1ccc2c(Cl)cc(Cl)c(O)c2n1 [PBT2, reference compound]
[1]
  activation of EPO gene expression: did not induced differences in gene activity
[2]
  activation of HMOX-1 gene expression: did not induced differences in gene activity

## C=CC[C@@H]1/C=C(\C)C[C@H](C)C[C@H](OC)[C@H]2O[C@@](O)(C(=O)C(=O)N3CCCC[C@H]3C(=O)O[C@H](/C(C)=C/[C@@H]3CC[C@@H](O)[C@H](OC)C3)[C@H](C)[C@@H](O)CC1=O)[C@H](C)C[C@@H]2OC [tacrolimus, reference compound]
[7]
  skin graft rejection score (0-5): smaller score values both on day 9 and on day 10
